Data taken from BindingDB's records for doi:10.1021/jm0205696 (Abbott Laboratories, 2003).

Target: T1, Tyrosine-protein phosphatase non-receptor type 2 (Homo sapiens, UniProt P17706)
T1 sequence (P17706 whole entry): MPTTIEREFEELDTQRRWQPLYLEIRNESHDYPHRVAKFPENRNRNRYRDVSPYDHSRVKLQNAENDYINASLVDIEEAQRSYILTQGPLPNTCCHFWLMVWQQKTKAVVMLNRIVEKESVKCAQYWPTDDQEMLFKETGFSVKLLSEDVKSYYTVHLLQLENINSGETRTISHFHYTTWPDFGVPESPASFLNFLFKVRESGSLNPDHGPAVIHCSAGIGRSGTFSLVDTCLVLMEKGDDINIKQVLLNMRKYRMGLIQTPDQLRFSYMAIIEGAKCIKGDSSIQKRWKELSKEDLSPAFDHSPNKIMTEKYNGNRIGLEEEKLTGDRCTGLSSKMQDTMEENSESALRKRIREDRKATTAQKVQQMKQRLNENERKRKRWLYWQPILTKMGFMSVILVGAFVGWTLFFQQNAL
Assay: PTP1B and TCPTP Inhibition Assay
Method: For each concentration of test compound or DMSO control, the initial rates were used to fit the rectangular hyperbola of Michaelis-Menten by nonlinear regression analysis. The ratio of the apparent Km/Vmax vs inhibitor concentration was plotted, and the Ki was calculated by linear regression to be the negative X-intercept.

Ki: 160 nM
Structure (SMILES): CCCCCNC(=O)[C@H](Cc1ccc(N(C(=O)C(=O)O)c2ccccc2C(=O)O)c(/C=C/C(N)=O)c1)NS(C)(=O)=O [2-{[2-(2-Carbamoylvinyl)-4-(2-(S)-methanesulfonylamino 2-pentylcarbamoylethyl)phenyl]oxalylamino}-benzoic Acid]
